In patent publication US8232253B2, “Treatment of lung cancer” (Ramot at Tel-Aviv University Ltd., priority 2006, dated 2012):

What was measured:
A549 cells [1] = test: Drug combination experiments, live cell counting; format: cell-based, human; settings: 4 h
Experimental: In drug combination experiments, cells were grown for 2 days in the absence or in the presence of 40 μM FTS and were then treated for 4 h with gemcitabine (100 or 200 nM), cisplatin (50 or 100 nM), doxorubicin (50 or 100 nM), or paclitaxel (2.5 or 5 nM). Live cells were counted after a further 3 days of incubation with or without FTS. Experiments were performed twice in quadruplicate. To determine whether A549 cells were resistant to apoptosis, an experiment to examine the survival of human lung cancer A549 cells after exposure to a chemotherapeutic agent in the presence of FTS was performed. Thus, to determine whether treatment with FTS can increase the sensitivity of A549 cells to cytotoxic drugs, A549 cells were incubated for 48 h with DMSO (control) or with 40 μM FTS, then for 4 h with gemcitabine, cisplatin, doxorubicin, or paclitaxel at the indicated concentrations. The cells were then washed and incubated for a further 72 h with DMSO or with 40 μM FTS. Live cells were collected and counted. The numbers of cells in the drug-treated cultures, expressed as percentages of the numbers in the vehicle-treated control, are shown in FIGS. 13A-13D. Values are means±SD. *P<0.05, **P<0.01, compared to vehicle-treated control.

A549 cells [2] = test: A549-cell-implanted nude mouse model, tumor growth; format: in vivo, nude mice; settings: gemcitabine alone 36 mg/kg i.p. every 4 days (FIG. 14D)
Experimental: Nude mice (6 weeks old) were housed in barrier facilities on a 12-h light/dark cycle. Food and water were supplied ad libitum. On day zero, A549 or HTB-58 cells (5×10^6 cells in 0.1 ml PBS) were implanted subcutaneously (s.c.) just above the right femoral joint. After 5 or 11 days the mice were separated randomly into control groups that had received only the vehicle and FTS-treated groups. Daily FTS treatments were administered either intraperitoneally (i.p.) or orally. Tumor volumes or weights were determined as described in Barkan, B., Starinsky, S., Friedman, E., Stein, R., Kloog, Y., Clin Cancer Res 12:5533-42 (2006). Gemcitabine treatment (36 mg/kg, i.p.) was administered every 4 days.
To determine whether FTS inhibited tumor growth in vivo, experiments were conducted using a nude mouse model. The lung cancer cells were implanted s.c. above the right femoral joint and the mice were then treated with FTS. In a first experiment, the effect of i.p. administration of FTS on tumor growth in A549 cells was assessed. Treatment was started 5 days after cell implantation, by which time the tumors were palpable. Tumor volumes were determined 24 days after implantation in two groups of mice (n=8) that had received daily i.p. administration of either the vehicle (control) or 10 mg/kg FTS.
In an additional set of experiments, the A549-cell-implanted nude mouse model was used to examine the effect of orally administered FTS on tumor growth. First, cells were implanted as described above and daily oral treatment with FTS (50 mg/kg; n=6) or vehicle (n=5) was started either 11 days (FIG. 14C) or 6 days (FIG. 14D) after implantation. […] Next, the effects of orally administered FTS, alone or in combination with gemcitabine, on A549-cell tumor growth was examined (FIG. 14D). Six days after cell implantation, mice were divided into four groups (n=8 per group) and treated orally with vehicle alone (control), FTS alone (60 mg/kg), vehicle and gemcitabine (36 mg/kg, i.p. every 4 days), or FTS and gemcitabine. Treatments with gemcitabine began 1 week after FTS treatment was started.

Compound	reduction in cell numbers (A549 cells [1]; cisplatin alone 50 nM)	reduction in cell numbers (A549 cells [1]; cisplatin alone 100 nM)	reduction in cell numbers (A549 cells [1]; gemcitabine alone 100 nM)	reduction in cell numbers (A549 cells [1]; gemcitabine alone 200 nM)	effect on tumor weight (A549 cells [2])
N.N.[Cl][Pt][Cl] [cisplatin, cis-diamminedichloroplatinum(II)]	11±11%	30±12.9%	–	–	–
Cl.Nc1ccn([C@@H]2O[C@H](CO)[C@@H](O)C2(F)F)c(=O)n1 [gemcitabine, 2′-deoxy-2′,2′-difluorocytidine monohydrochloride]	–	–	< 11%	< 11%	significant reduction in tumor weight
